# pIC50: −log10 of the molar value. Where “and” joins values, the source holds several entries; their conditions need not be identical. Equal entries are not always repeated. Where two headings read alike, the source gives them in different places.
# Columns and labels:
# [1] = target: Human Constitutive (Hu C-20S) β5 Active Subunit (Homo sapiens, UniProt P28074); assay: IC50 determination, human constitutive 20S proteasome β5c (suc-LLVY-AMC hydrolysis); format: biochemical; conditions: Table 2; several values in a cell are repeat determinations; read-out: Hu c-20S IC50
# Mtb20SOG = Mtb20SOG (Mycobacterium tuberculosis, UniProt P9WHT9); assay: biochemical
# [2] = Table 2, several values in a cell are repeat determinations
# Mtb20SOG, sequence (P9WHT9 58-291): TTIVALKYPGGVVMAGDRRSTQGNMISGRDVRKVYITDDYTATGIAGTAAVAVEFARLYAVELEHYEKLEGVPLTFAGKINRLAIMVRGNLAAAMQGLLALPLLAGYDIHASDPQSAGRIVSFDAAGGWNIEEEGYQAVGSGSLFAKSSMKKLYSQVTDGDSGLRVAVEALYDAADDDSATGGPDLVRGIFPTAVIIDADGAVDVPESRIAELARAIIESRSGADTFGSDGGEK
Structure (SMILES),pIC50 [1],pIC50 (Mtb20SOG),pIC50 (Mtb20SOG; [2])
C[C@@H](NC(=O)[C@H](CC(=O)N1CCC[C@@H]1C)NC(=O)CCC(C)(C)C)c1nc2ccccc2[nH]1 [CF-503190],4.76,5.58,–
C[C@H]1CCCCN1C(=O)C[C@H](NC(=O)CCC(C)(C)C)C(=O)NCc1nc2ccccc2[nH]1 [CF-503191],4.99,6.34,–
CC(C)CCC(=O)N[C@@H](CC(=O)N1CCCC[C@@H]1C)C(=O)N[C@H](C)c1nc2ccccc2[nH]1 [CF-503192],4.81,–,5.31
CC(C)CCC(=O)N[C@@H](CC(=O)N1CCCC[C@@H]1C)C(=O)NCc1nc2ccccc2[nH]1 [CF-503193],4.75,–,6.19
CCN(CC)C(=O)C[C@H](NC(=O)CCC(C)C)C(=O)N[C@@H](C)c1nc(-c2ccc(F)cc2F)c[nH]1 [CF-503197],5.14,5.95,–
CC(C)CCC(=O)N[C@@H](CC(=O)N1CCCC[C@@H]1C)C(=O)N[C@@H](C)c1ncc(-c2ccc(F)cc2F)[nH]1 [CF-503198],5.14,–,5.80
CC(C)CCC(=O)N[C@@H](CC(=O)N1CCCC[C@H]1C)C(=O)N[C@@H](C)c1nc(-c2ccc(F)cc2F)c[nH]1 [CF-503199],4.98,6.00,–
CC(C)CCC(=O)N[C@@H](CC(=O)N(C)C(C)C)C(=O)N[C@@H](C)c1ncc(-c2ccc(F)cc2F)[nH]1 [CF-503200],4.83,–,6.04
C[C@H](NC(=O)N(CC(=O)N1CCCC[C@@H]1C)NC(=O)OC(C)(C)C)C(=O)NCc1ccc(F)cc1F [CF-503201],5.07 and < 5.10,–,5.08 and < 5.10
C[C@H](NC(=O)N(CC(=O)N1CCCC[C@@H]1C)NC(=O)CCC(C)(C)C)C(=O)NCc1ccc(F)cc1F [CF-503202],5.07 and 5.04,–,5.08 and 5.06
C[C@H](NC(=O)[C@H](CC(=O)N1CCCC[C@@H]1C)NC(=O)CCC1CC1)c1ncc(-c2ccc(F)cc2F)[nH]1 [CF-503204],4.93,–,7.01
C[C@H](NC(=O)[C@H](CC(=O)N1CCCC[C@@H]1C)NS(=O)(=O)CCC1CC1)c1ncc(-c2ccc(F)cc2F)[nH]1 [CF-503206],5.21,–,6.30
CC(C)CCC(=O)N[C@@H](CC(=O)N1CCOC[C@@H]1C)C(=O)N[C@@H](C)c1nc(-c2ccc(F)cc2F)c[nH]1 [CF-503210],4.82,6.39,–
CC(C)CCC(=O)N[C@@H](CC(=O)N1CCCC[C@@H]1C(F)(F)F)C(=O)N[C@@H](C)c1nc(-c2ccc(F)cc2F)c[nH]1 [CF-503212],5.31,6.46,–
CC[C@H]1CCCCN1C(=O)C[C@H](NC(=O)CCC(C)C)C(=O)N[C@@H](C)c1ncc(-c2ccc(F)cc2F)[nH]1 [CF-503213],5.35,–,7.48 and 7.54
CC(C)CCC(=O)N[C@@H](CC(=O)N1CCCCCC1)C(=O)N[C@@H](C)c1nc(-c2ccc(F)cc2F)c[nH]1 [CF-503214],4.99,6.18,–
CC[C@H]1CCCCN1C(=O)C[C@H](NC(=O)CCC(C)C)C(=O)N[C@@H](C)c1nc2ccccc2[nH]1 [CF-503216],4.83 and 4.84,6.53 and 6.48,–
CC(C)CCC(=O)N[C@@H](CC(=O)N1CCCCC1C(C)C)C(=O)N[C@@H](C)c1ncc(-c2ccc(F)cc2F)[nH]1 (stereo partly drawn) [CF-503218],5.50,–,6.87 and 6.77
CC[C@H]1CCCCN1C(=O)C[C@H](NC(=O)CCC(C)C)C(=O)N[C@@H](C)c1nc2cc(F)cc(F)c2[nH]1 [CF-503219],5.39 and 5.35,6.10 and 6.08,–
CC[C@H]1CCCCN1C(=O)C[C@H](NC(=O)CCC(C)(C)C)C(=O)N[C@@H](C)c1nc2c(F)cccc2[nH]1 [CF-503222],4.95 and 4.91 and 4.93,–,7.82 and 7.54 and 7.39
CC[C@H]1CCCCN1C(=O)C[C@H](NC(=O)CCC(C)C)C(=O)N[C@@H](C)c1nc2c(F)cccc2[nH]1 [CF-503223],4.97 and 4.99,7.55 and 7.48,–
CC(C)CCC(=O)N[C@@H](CC(=O)N1CCCC[C@@H]1C)C(=O)N[C@@H](C)c1nc2c(F)cccc2[nH]1 [CF-503225],4.79 and 4.77,–,7.01 and 6.93
C[C@H](NC(=O)[C@H](CC(=O)N1CCCC[C@@H]1C)NC(=O)CCC(C)(C)C)c1nc2c(F)cccc2[nH]1 [CF-503227],5.32 and 5.19,–,7.10 and 7.09
CC[C@H]1CCCCN1C(=O)C[C@H](NC(=O)CCC(C)C)C(=O)N[C@@H](C)c1nc2cc(F)c(F)cc2[nH]1 [CF-503229],5.30,5.22,–

Structure (SMILES),pIC50 [1],pIC50 (Mtb20SOG),pIC50 (Mtb20SOG; [2])
CC[C@H]1CCCCN1C(=O)C[C@H](NS(=O)(=O)CCC(C)C)C(=O)N[C@@H](C)c1nc2c(F)cccc2[nH]1 [CF-503230],4.75 and 5.07,–,6.40 and 6.28
C[C@H](NC(=O)[C@@H](N)CC(=O)N1CCC[C@@H]1c1ccccc1)c1ncc(-c2ccccc2F)[nH]1 [CF-503240],4.03,–,5.07
C[C@H](NC(=O)[C@H](CC(=O)N1CCC[C@@H]1c1ccccc1)Nc1nc2ccccc2o1)c1ncc(-c2ccccc2F)[nH]1 [CF-503242],4.77 and 4.69,–,6.12 and 6.17
Cc1cc(C(=O)N[C@@H](CC(=O)N2CCCC[C@@H]2C)C(=O)N[C@@H](C)c2nc3c(F)cccc3[nH]2)no1 [CF-503274],5.15,7.16,–
CC[C@H]1CCCCN1C(=O)C[C@H](NC(=O)CCc1ccccc1)C(=O)N[C@@H](C)c1nc2c(F)cccc2[nH]1 [CF-503291],5.58 and 5.47,8.15 and 8.22,–
CC[C@H]1CCCCN1C(=O)C[C@H](NC(=O)NCc1ccccc1)C(=O)N[C@@H](C)c1nc2c(F)cccc2[nH]1 [CF-503304],5.03,6.44 and 6.49,–
CC[C@H]1CCCCN1C(=O)C[C@H](NC(=O)CC1CC1)C(=O)N[C@@H](C)c1nc2c(F)cccc2[nH]1 [CF-503318],4.77,6.95,–
CC[C@H]1CCCCN1C(=O)C[C@H](NC(=O)CC(F)(F)F)C(=O)N[C@@H](C)c1nc2c(F)cccc2[nH]1 [CF-503319],5.38,6.49,–
CC[C@H]1CCCCN1C(=O)C[C@H](Nc1nc2ccccc2o1)C(=O)N[C@@H](C)c1nc2c(F)cccc2[nH]1 [CF-503321],5.35 and 5.28,–,6.57 and 6.43
CC[C@H]1CCCCN1C(=O)C[C@H](NC(=O)CCN(C)C)C(=O)N[C@@H](C)c1nc2c(F)cccc2[nH]1 [CF-503356],5.19,5.19,–
CC[C@H]1CCCCN1C(=O)C[C@H](Nc1nc2cc(C)ccc2o1)C(=O)N[C@@H](C)c1nc2c(F)cccc2[nH]1 [CF-503357],5.72,6.59,–
CC[C@H]1CCCCN1C(=O)C[C@H](Nc1nc2ccc(C)cc2o1)C(=O)N[C@@H](C)c1nc2c(F)cccc2[nH]1 [CF-503360],5.95 and 5.84 and 5.85,–,6.90 and 6.72 and 6.45 and 6.44
CC(NC(=O)C(CC(=O)N1CCCCC1C)NC(=O)C1CC1c1ccccc1)c1nc2c(F)cccc2[nH]1 (stereo not drawn) [CF-503363],5.10,7.29,–
CC(C)C1CC1C(=O)N[C@@H](CC(=O)N1CCCC[C@@H]1C)C(=O)N[C@@H](C)c1nc2c(F)cccc2[nH]1 (stereo partly drawn) [CF-503381],5.61,–,7.39 and 7.44
CC[C@H]1CCCCN1C(=O)C[C@H](NC(=O)[C@@H]1C[C@H]1c1ccccc1)C(=O)N[C@@H](C)c1nc2c(F)cccc2[nH]1 [CF-503382],4.92,–,6.78
CC[C@H]1CCCCN1C(=O)C[C@H](Nc1nc(C(C)C)no1)C(=O)NCc1nc2c(F)cccc2[nH]1 [CF-503417],5.44 and 5.52,–,5.87 and 5.75
CC[C@H]1CCCCN1C(=O)C[C@H](Nc1nc(Cc2ccc(F)cc2)no1)C(=O)N[C@@H](C)c1nc2c(F)cccc2[nH]1 [CF-503419],5.87 and 5.92,6.59 and 6.50,–
CC[C@H]1CCCCN1C(=O)C[C@H](Nc1nc2ccccc2s1)C(=O)N[C@@H](C)c1nc2c(F)cccc2[nH]1 [CF-503445],5.92,–,5.93
CC[C@H]1CCCCN1C(=O)C[C@H](NC(=O)N(C)Cc1ccccc1)C(=O)N[C@@H](C)c1nc2c(F)cccc2[nH]1 [CF-503451],5.48 and 5.43,6.75 and 6.74,–
CC[C@H]1CCCCN1C(=O)C[C@H](NC(=O)N1CCOCC1)C(=O)N[C@@H](C)c1nc2c(F)cccc2[nH]1 [CF-503453],5.35,–,5.33
CC[C@H]1CCCCN1C(=O)C[C@H](NC(=O)N1CCCCC1)C(=O)N[C@@H](C)c1nc2c(F)cccc2[nH]1 [CF-503454],5.52,–,6.12
CC[C@H]1CCCCN1C(=O)C[C@H](NC(=O)N(C)CC(C)C)C(=O)N[C@@H](C)c1nc2c(F)cccc2[nH]1 [CF-503457],5.30,–,5.63
CC(NC(=O)C(CC(=O)N1CCCCC1C)NC(=O)N(C)Cc1ccccc1)c1nc2c(F)cccc2[nH]1 (stereo not drawn) [CF-503460],4.76,6.57,–
CC[C@H]1CCCCN1C(=O)C[C@H](NC(=O)OCc1ccccc1)C(=O)N[C@@H](C)c1nc2c(F)cccc2[nH]1 [CF-503461],5.24 and 5.09,–,7.17 and 7.12
